# Data: patent US8080654B2, “Macrocyclic quinoxaline compounds as HCV NS3 protease inhibitors” (Insituto di Ricerche di Biologia Molecolare P. Angeletti SpA, priority 2008, dated 2011)
# “Also recorded” adds a separate entry of the source. Like-named read-outs stand apart in the source and are kept apart here.
# Columns and labels:
# [1] = In vivo covalent protein binding of 3H-labelled compound; conditions: Rat @ 6 h, 20 mg/kg oral
# Procedure: In-Vivo Covalent Binding^4: […] Plasma and liver were collected and flash frozen/stored at −80° C. before analysis. Counting of the plasma samples: Place a 200 μL aliquot in a 20 mL scintillation vial. Add 500 μL of SOLVABLE™ and incubate at 1 h with shaking at 55° C. Remove, allow to cool prior to the addition of 15 mL scintillation cocktail, and count. […] Tissue homogenization: […] Counting of the liver homogenate: Aliquots were placed in a 20 mL scintillation vial, diluted with 1 mL of SOLVABLE™ and incubated for 1 h with shaking at 55° C. After removal from the incubator and cooling 15 mL scintillation cocktail and 30% H2O2 were added and the radioactivity counted. Protein precipitation: […] Protein precipitate resuspension: Sonication (minimal intensity, <5 sec) and vortexing until the pellet crumbles in 80% MeOH:20% water. Wash of the protein pellet: 2-5 mL 80:20 MeOH:water. If needed, remove 1.0 mL of the supernatant, add 15 mL of scintillation cocktail and count. Continue to wash the protein pellet until radioactivity in supernatant is <200 DPM or DPMs cease to decrease by more than 200 in consecutive washes. Dissolution of the final pellet: 1 mL of 1 N NaOH or Solvable™, incubated at 50° C. overnight or until completely dissolved. Counting of the final pellet: 1 mL of dissolved pellet, 15 mL scintillation cocktail (if another scintillation cocktail other than ULTIMA GOLD™ is used, pellet may require neutralization using 1 N HCl), and count. Protein concentration of the final pellet: BCA or BIO-RAD kit using BSA as a standard. Counting blank samples: 15 mL scintillation cocktail, in duplicate. Counting of the dosing solution: count a known volume of the dosing solution in triplicate. Data Analysis: Average the radioactivity counts (DPM) of the dosing solution and calculate the specific activity of the dosing solution in μCi/mol. Average the radioactivity counts of the blank samples. Subtract the counts of the averaged blank sample from the counts obtained from each liver and plasma pellet. Calculate the amount of radioactivity (μCi) per unit volume (L) for each liver and plasma pellet. Calculate the concentration of radioactivity in each plasma and liver pellet by dividing the value obtained above (μCi/L) by the specific activity (μCi/mol). Calculate the amount of covalently bound radioactivity to protein in pmol/mg protein.
# [2] = Dog pharmacokinetics per os (plasma AUC, liver concentration)
# Procedure: (§1) Plasma samples were collected at time points between 2 minutes and 24 h, and compound levels were determined by RP-HPLC. Liver samples were collected post mortem in rat and following anesthesia (0.5 h prior to biopsy) in dog. Liver samples were weighed, homogenized, and diluted using techniques known to those skilled in the art, and compound levels were determined by RP-HPLC.
# (§2) Pharmacokinetic parameters were calculated based on non-compartmental analysis (e.g., using WATSON®, WINNOLIN®). Predose concentrations that were below the limit of quantitation (BLQ) were assigned a value of 0. […] AUC values were calculated using linear trapezoidal method for ascending concentrations and the log trapezoidal method for descending concentrations.
# [3] = Physical properties: equilibrium solubility and salt disproportionation (XRPD, NMR); assay type: physicochemical
# Procedure: After centrifuging, the supernatant was analyzed by reversed-phase HPLC and the equilibrium solubility determined by comparison with a calibration curve. The solid material was in part transferred onto an XRPD plate, dried and then analyzed by X-Ray Powder Diffraction. The XRPD pattern was compared with positive controls for crystalline K+ salt, crystalline zwitterionic (or acidic) and amorphous forms of the test compound.
# [4] = Rat pharmacokinetics per os (plasma AUC, liver concentration)
# Procedure: as §1, §2
# [5] = tested on: HCV replicon gt1b; assay: HCV replicon activity, genotype 1b; assay type: cell-based; conditions: Hepatitis C virus; genotype 1b replicon; 50% viral replication suppression; read-out: Replicon Activity EC50 gtlb
# [6] = biological target: NS 3/4A 1b (Hepatitis C virus genotype 1b, UniProt P26663); assay: biochemical; conditions: genotype 1b enzyme; read-out: NS 3/4A Inhibitory Activity (Ki) lb
# Procedure: A NS3 protease assay can be performed, for example, in a final volume of 100 μl assay buffer containing 50 mM HEPES, pH 7.5, 150 mM NaCl, 15% glycerol, 0.15% TRITON X-100, 10 mM DTT, and 0.1% PEG 8000. NS3 and NS4A protease is pre-incubated with various concentrations of inhibitors in DMSO for 30 minutes. The reaction is initiated by adding the TRF peptide substrate (final concentration 100 nM). NS3 mediated hydrolysis of the substrate is quenched after 1 hour at room temperature with 100 μl of 500 mM MES, pH 5.5. […] IC50 values are derived using a standard four-parameter fit to the data. […] See P. Gallinari et al., 38 BIOCHEM. […] BIOCHEM. […] V. General Compound Production
# (§3) NS 3/4A Inhibitory Activity^1 (Ki): NS 3/4A Inhibitory Activity was determined as described in Section IV.
# [7] = biological target: 1b mutant enzyme R155N (Hepatitis C virus genotype 1b, UniProt P26663, R1181N); assay: NS3/4A TRF enzyme assay, 1b mutant R155N; assay type: biochemical, hepatitis C virus (HCV)
# Procedure: (§4) A NS3 protease assay can be performed, for example, in a final volume of 100 μl assay buffer containing 50 mM HEPES, pH 7.5, 150 mM NaCl, 15% glycerol, 0.15% TRITON X-100, 10 mM DTT, and 0.1% PEG 8000. NS3 and NS4A protease is pre-incubated with various concentrations of inhibitors in DMSO for 30 minutes. The reaction is initiated by adding the TRF peptide substrate (final concentration 100 nM). NS3 mediated hydrolysis of the substrate is quenched after 1 hour at room temperature with 100 μl of 500 mM MES, pH 5.5. […] Testing concentrations of different enzyme forms are selected to result in a signal to background ratio (S/B) of 10-30. IC50 values are derived using a standard four-parameter fit to the data. Ki values are derived from IC50 values using the following formula, IC50=Ki(1+[S]/KM), Eqn (1), where [S] is the concentration of substrate peptide in the reaction and KM is the Michaelis constant. See P. Gallinari et al., 38 BIOCHEM. […] BIOCHEM. […] V. General Compound Production
# as §3
# [8] = biological target: 1b mutant enzyme D168T (Hepatitis C virus genotype 1b, UniProt P26663, D1194T); assay: NS3/4A TRF enzyme assay, 1b mutant D168T; assay type: biochemical, hepatitis C virus (HCV)
# Procedure: as §4, §3
# [9] = biological target: 1b mutant enzyme A156V (Hepatitis C virus genotype 1b, UniProt P26663, A1182V); assay: NS3/4A TRF enzyme assay, 1b mutant A156V; assay type: biochemical, hepatitis C virus (HCV)
# Procedure: as §4, §3
# [10] = biological target: 1b mutant enzyme D168Q (Hepatitis C virus genotype 1b, UniProt P26663, D1194Q); assay: NS3/4A TRF enzyme assay, 1b mutant D168Q; assay type: biochemical, hepatitis C virus (HCV)
# Procedure: as §4, §3
# [11] = biological target: 1b mutant enzyme D168A (Hepatitis C virus genotype 1b, UniProt P26663, D1194A); assay: NS3/4A TRF enzyme assay, 1b mutant D168A; assay type: biochemical, hepatitis C virus (HCV)
# Procedure: as §4, §3
# [12] = biological target: 1b mutant enzyme D168Y (Hepatitis C virus genotype 1b, UniProt P26663, D1194Y); assay: NS3/4A TRF enzyme assay, 1b mutant D168Y; assay type: biochemical, hepatitis C virus (HCV)
# Procedure: as §4, §3
# [13] = biological target: 1b mutant enzyme R155Q (Hepatitis C virus genotype 1b, UniProt P26663, R1181Q); assay: NS3/4A TRF enzyme assay, 1b mutant R155Q; assay type: biochemical, hepatitis C virus (HCV)
# Procedure: as §4, §3
# [14] = biological target: 1b mutant enzyme D168V (Hepatitis C virus genotype 1b, UniProt P26663, D1194V); assay: NS3/4A TRF enzyme assay, 1b mutant D168V; assay type: biochemical, hepatitis C virus (HCV)
# Procedure: as §4, §3
# [15] = biological target: 1b mutant enzyme R155K (Hepatitis C virus genotype 1b, UniProt P26663, R1181K); assay: NS3/4A TRF enzyme assay, 1b mutant R155K; assay type: biochemical, hepatitis C virus (HCV)
# Procedure: as §4, §3
# [16] = biological target: 1b mutant enzyme R155G (Hepatitis C virus genotype 1b, UniProt P26663, R1181G); assay: NS3/4A TRF enzyme assay, 1b mutant R155G; assay type: biochemical, hepatitis C virus (HCV)
# Procedure: as §4, §3
# [17] = biological target: 1b mutant enzyme D168E (Hepatitis C virus genotype 1b, UniProt P26663, D1194E); assay: NS3/4A TRF enzyme assay, 1b mutant D168E; assay type: biochemical, hepatitis C virus (HCV)
# Procedure: as §4, §3
# [18] = biological target: 1b mutant enzyme A156S (Hepatitis C virus genotype 1b, UniProt P26663, A1182S); assay: NS3/4A TRF enzyme assay, 1b mutant A156S; assay type: biochemical, hepatitis C virus (HCV)
# Procedure: as §4, §3
# [19] = biological target: 1b mutant enzyme D168G (Hepatitis C virus genotype 1b, UniProt P26663, D1194G); assay: NS3/4A TRF enzyme assay, 1b mutant D168G; assay type: biochemical, hepatitis C virus (HCV)
# Procedure: as §4, §3
# [20] = biological target: 1b mutant enzyme A156T (Hepatitis C virus genotype 1b, UniProt P26663, A1182T); assay: NS3/4A TRF enzyme assay, 1b mutant A156T; assay type: biochemical, hepatitis C virus (HCV)
# Procedure: as §4, §3
structure (smiles),measurement,setting,value
C=C[C@@H]1C[C@]1(NC(=O)[C@@H]1C[C@@H]2CN1C(=O)[C@H](C(C)(C)C)NC(=O)O[C@@H]1CCC[C@H]1CCCCCc1nc3ccc(OC)cc3cc1O2)C(=O)NS(=O)(=O)C1CC1 [WO 2008/057209 Example 103],"Covalent Protein Binding In Vivo, liver",[1],liver = 24 pmol eq./mg
same,"Covalent Protein Binding In Vivo, plasma",[1],plasma = 6 pmol eq./mg
C=C[C@@H]1C[C@]1(NC(=O)[C@@H]1C[C@@H]2CN1C(=O)[C@H](C1CCCC1)NC(=O)O[C@@H]1CCC[C@H]1CCCCCc1nc3ccccc3cc1O2)C(=O)NS(=O)(=O)C1CC1 [WO 2008/057209 Example 96],"Covalent Protein Binding In Vivo, liver",[1],liver = 63 pmol eq./mg
same,"Covalent Protein Binding In Vivo, plasma",[1],plasma = 6 pmol eq./mg
"C=C[C@@H]1C[C@]1(NC(=O)[C@@H]1C[C@@H]2CN1C(=O)[C@H](C(C)(C)C)NC(=O)O[C@@H]1C[C@H]1CCCCCc1nc3ccc(OC)cc3nc1O2)C(=O)[N-]S(=O)(=O)C1CC1.[K+] [Example 1, Potassium {[(1R,2S)-1-({[(1aR,5S,8S,10R,22aR)-5-tert-butyl-14-methoxy-3,6-dioxo-1,1a,3,4,5,6,9,10,18,19,20,21,22,22a-tetradecahydro-8H-7,10-methanocyclopropa[18,19][1,10,3,6]dioxadiazacyclononadecino[11,12-b]quinoxalin-8-yl]carbonyl}amino)-2-vinylcyclopropyl]carbonyl}(cyclopropylsulfonyl)azanide]","Covalent Protein Binding In Vivo, liver",[1]; LOQ = 3 pmol/mg,liver = LOQ
same,"Covalent Protein Binding In Vivo, plasma","[1]; LOQ = 3 pmol/mg, 20 mg/kg","undetectable binding; also recorded: plasma = LOQ,"
same,Dog Liver Concentration @ 24 h (5mpk per os),[2]; 5 mpk per os,120 µM
same,Dog Plasma AUC @ 5mpk per os,"[2]; 5 mpk per os, plasma",48.6 µM·h
same,solubility at 24 h,"[3]; thermodynamic from solid; K+ salt form, water; read-out: Aqueous solubility of K+ salt form",1800 µg/mL
same,Rat Liver Concentration @ 24 h (25 mpk per os),[4]; 25 mpk per os,27.9 µM
same,Rat Plasma AUC @ 25mpk per os,"[4]; 25 mpk per os, plasma",20.6 µM·h
C=C[C@@H]1C[C@]1(NC(=O)[C@@H]1C[C@@H]2CN1C(=O)[C@H](C(C)(C)C)NC(=O)O[C@@H]1C[C@H]1CCCCCc1nc3ccc(OC)cc3cc1O2)C(=O)NS(=O)(=O)C1CC1 [WO 2008/057209 Example 110],EC50,[5],5 nM
same,Ki,[6],< 0.016 nM
same,"Covalent Protein Binding In Vivo, liver",[1]; LOQ = 3 pmol/mg,liver = BLQ
same,"Covalent Protein Binding In Vivo, plasma",[1]; LOQ = 3 pmol/mg,"plasma = BLQ,"
same,Dog Liver Concentration @ 24 h (5mpk per os),[2]; 5 mpk per os,3.3 µM
same,AUC,"[2]; plasma, po, 5 mg/kg",1 µM·h
same,solubility at 24 h,"[3]; water, thermodynamic from solid, K+ salt form, read-out: Aqueous solubility of K+ salt form",9700 µg/mL
same,solubility at 24 h,"[3]; water, thermodynamic from solid, crystalline zwitterionic form from disproportionation of the K+ salt, read-out: Aqueous solubility of crystalline zwitterionic form",< 9 µg/mL
same,Rat Liver Concentration @ 24 h (25 mpk per os),[4]; 25 mpk per os,8.5 µM
same,AUC,"[4]; plasma, po, 25 mg/kg",5.8 µM·h
C=C[C@@H]1C[C@]1(NC(=O)[C@@H]1C[C@@H]2CN1C(=O)[C@H](C1CCCC1)NC(=O)O[C@@H]1CCC[C@H]1CCCCCc1nc3ccccc3nc1O2)C(=O)NS(=O)(=O)C1CC1 [WO 2008/057209 Example 108],"Covalent Protein Binding In Vivo, liver",[1],liver = 38 pmol eq./mg
same,"Covalent Protein Binding In Vivo, plasma",[1],plasma = 15 pmol eq./mg
C=C[C@@H]1C[C@]1(NC(=O)[C@@H]1C[C@@H]2CN1C(=O)[C@H](C(C)(C)C)NC(=O)O[C@@H]1CCC[C@H]1CCCCCc1nc3ccc(OC)cc3nc1O2)C(=O)NS(=O)(=O)C1CC1 [WO 2008/057209 Example 118],Ki,[7],0.56 nM
same,EC50,[5],3 nM
same,Ki,[6],< 0.016 nM
same,Ki,[8],0.78 nM
same,Ki,[9],15 nM
same,Ki,[10],0.42 nM
same,Ki,[11],0.86 nM
same,Ki,[12],1.5 nM
same,Ki,[13],1.9 nM
same,Ki,[14],0.65 nM
same,Ki,[15],0.08 nM
same,Ki,[16],2.3 nM
same,Ki,[17],0.12 nM
same,Ki,[18],0.1 nM
same,Ki,[19],0.45 nM
same,Ki,[20],3.4 nM
